Assay results published in the supplement of paper PMC10307832.

Experiments:
Test in all cases: relative viability (nuclei count vs DMSO), 5 days (fraction); higher = more cells survive
[1] = compound: C=C(c1ccc(C(=O)O)cc1)c1cc2c(cc1C)C(C)(C)CCC2(C)C [Bexarotene] + CC(C)C[C@H](NC(=O)[C@H](Cc1ccccc1)NC(=O)c1cnccn1)B(O)O [Bortezomib] (partner 0.002 µM)
Summary of the method: (§1)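 Nuclei were stained with Hoechst during a one-step fixation (final 0.05% Triton X-100, 1% formaldehyde, 1 ug/ml Hoechst) carried out 5 days after dosing, then counted on 4× images. The cells, lung cancer lines in 1536-well plates, had been dosed by pin tool the day after seeding with one drug alone or a fixed anchor-drug dose plus five library-drug doses (not always all listed) in √10 steps. Relative viability is the nuclei count in treated wells divided by that in vehicle wells, and each value is the median of duplicate plates.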

[2] = compound: C=C(c1ccc(C(=O)O)cc1)c1cc2c(cc1C)C(C)(C)CCC2(C)C [Bexarotene] + CC1(C)CCC(c2ccc(Cl)cc2)=C(CN2CCN(c3ccc(C(=O)NS(=O)(=O)c4ccc(N[C@H](CCN5CCOCC5)CSc5ccccc5)c(S(=O)(=O)C(F)(F)F)c4)cc3)CC2)C1 [Navitoclax] (partner 0.5 µM)
Summary of the method: as §1

[3] = compound: C=C(c1ccc(C(=O)O)cc1)c1cc2c(cc1C)C(C)(C)CCC2(C)C [Bexarotene] + Cc1nc(Nc2ncc(C(=O)Nc3c(C)cccc3Cl)s2)cc(N2CCN(CCO)CC2)n1 [Dasatinib] (partner 0.075 µM)
Summary of the method: as §1

[4] = compound: C=C(c1ccc(C(=O)O)cc1)c1cc2c(cc1C)C(C)(C)CCC2(C)C [Bexarotene] + CCNC(=O)c1noc(-c2cc(C(C)C)c(O)cc2O)c1-c1ccc(CN2CCOCC2)cc1 [Luminespib] (partner 0.01 µM)
Summary of the method: as §1

Cell Line	relative viability ([1]; first compound 0.08 µM)	relative viability ([1]; first compound 0.253 µM)	relative viability ([1]; first compound 0.8 µM)	relative viability ([1]; first compound 2.53 µM)	relative viability ([1]; first compound 8 µM)	relative viability ([2]; first compound 0.08 µM)	relative viability ([2]; first compound 0.253 µM)	relative viability ([2]; first compound 0.8 µM)	relative viability ([2]; first compound 2.53 µM)	relative viability ([2]; first compound 8 µM)	relative viability ([3]; first compound 0.08 µM)	relative viability ([3]; first compound 0.253 µM)	relative viability ([3]; first compound 0.8 µM)	relative viability ([3]; first compound 2.53 µM)	relative viability ([3]; first compound 8 µM)	relative viability ([4]; first compound 0.08 µM)	relative viability ([4]; first compound 0.253 µM)	relative viability ([4]; first compound 0.8 µM)	relative viability ([4]; first compound 2.53 µM)	relative viability ([4]; first compound 8 µM)
NCI-H1734	0.896	0.98	0.936	0.87	0.818	0.804	0.877	0.795	0.781	0.815	0.478	0.484	0.412	0.411	0.46	0.2	0.182	0.177	0.172	0.195
NCI-H1755	1.02	1.03	1.02	1	0.957	1.04	1.05	1.02	0.993	0.993	0.436	0.395	0.366	0.403	0.361	0.391	0.504	0.679	0.52	0.438
NCI-H1792	0.871	0.981	0.809	0.761	0.681	0.588	0.515	0.489	0.297	0.579	0.82	0.769	0.764	0.786	0.689	0.519	0.406	0.49	0.361	0.286
NCI-H1915	1	0.989	0.896	0.993	0.911	0.846	0.792	0.834	0.77	0.728	0.391	0.319	0.292	0.297	0.297	0.805	0.742	0.748	0.714	0.724
NCI-H1975	0.414	0.376	0.452	0.428	0.346	1.29	1.19	1.3	1.22	1.09	0.468	0.335	0.391	0.335	0.375	0.171	0.159	0.201	0.154	0.215
NCI-H1993	1.01	0.991	0.984	0.978	1.1	1.11	1.03	0.878	0.924	0.841	0.655	0.573	0.528	0.617	0.613	1.09	0.783	0.792	0.859	0.815
NCI-H2009	1.16	1.27	1.13	1.08	1	1.24	1.28	1.23	1.17	1.19	0.323	0.33	0.301	0.322	0.359	1.19	1.18	1.12	1.2	1.02
NCI-H2023	1.08	1.01	1.07	0.846	0.786	0.991	0.993	0.921	0.851	0.729	0.628	0.64	0.561	0.522	0.5	0.903	0.86	0.618	0.568	0.547
